A word on the IC50: it is the point on the concentration scale where inhibition reaches its midpoint.

Molecules are shown by their SMILES.

Consider 23 molecules from patent US9062048B2, “Cyclohexyl-azetidinyl antagonists of CCR2” (Janssen Pharmaceutica NV, priority 2010, dated 2015).

This assay deals with CCR2 (Homo sapiens (Human), UniProt P41597). As to the kind of experiment: MCP-1 Receptor Binding Assay in THP-1 Cells.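 Note: THP-1 is a human monocytic cell line, and nonspecific binding was defined with 1 µM unlabeled MCP-1.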 Particulars: 0.5 nM 125I labeled MCP-1, 2 hours at 30° C., read-out: Inhibition of MCP-1 Binding IC50 MCP1B.
Chain of CCR2 (P41597 whole entry): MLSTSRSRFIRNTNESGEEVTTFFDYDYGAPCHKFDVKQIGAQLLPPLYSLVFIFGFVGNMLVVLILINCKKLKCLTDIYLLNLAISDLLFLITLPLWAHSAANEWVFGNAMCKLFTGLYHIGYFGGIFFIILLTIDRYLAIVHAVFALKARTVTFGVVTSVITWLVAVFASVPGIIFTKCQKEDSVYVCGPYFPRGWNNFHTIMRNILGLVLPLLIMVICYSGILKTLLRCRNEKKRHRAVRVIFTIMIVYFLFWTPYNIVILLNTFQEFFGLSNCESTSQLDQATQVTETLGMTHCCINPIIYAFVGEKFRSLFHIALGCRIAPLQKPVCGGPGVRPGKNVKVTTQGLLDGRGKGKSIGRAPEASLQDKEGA

Regarding `CCN(C(C)=O)[C@H]1CC[C@@H](N2CC(NC(=O)CNc3ncnc4ccc(C(F)(F)F)cc34)C2)CC1` [Example 50], the IC50 was found to be 810 nM.

Turning to `O=C(CNc1ccnc2ccc(C(F)(F)F)cc12)NC1CN([C@H]2CC[C@@](O)(c3nccs3)CC2)C1` [Example 27], the IC50 is 17 nM.

In the case of `CC(=O)NC[C@H]1CC[C@@H](N2CC(NC(=O)CNc3ncnc4ccc(C(F)(F)F)cc34)C2)CC1` [Example 111, N-(1-((1s,4s)-4-(acetamidomethyl)cyclohexyl)azetidin-3-yl)-2-((6-(trifluoromethyl)quinazolin-4-yl)amino)acetamide], the IC50 came to 37 nM.

Take `CCCN(C(=O)OCc1ccccc1)[C@H]1CC[C@@H](N2CC(NC(=O)CNc3ncnc4ccc(C(F)(F)F)cc34)C2)CC1` [Example 48, benzyl propyl((1s,4s)-4-(3-(2-((6-(trifluoromethyl)quinazolin-4-yl)amino)acetamido)azetidin-1-yl)cyclohexyl)carbamate]: the IC50 amounted to 300 nM.

Consider `O=C(CNc1ncnc2ccc(C(F)(F)F)cc12)NC1CN([C@H]2CC[C@@H](C3CCCC3)CC2)C1` [Example 33, N-(1-((1s,4s)-4-cyclopentylcyclohexyl)azetidin-3-yl)-2-((6-(trifluoromethyl)quinazolin-4-yl)amino)acetamide], for which the IC50 worked out at 140 nM.

On to `CCC(O)[C@H]1CC[C@@H](N2CC(NC(=O)CNc3nccc4ccc(C(F)(F)C(F)(F)F)cc34)C2)CC1` (stereo partly drawn) [Example 170, N-(1-((1R,4s)-4-(1-hydroxypropyl)cyclohexyl)azetidin-3-yl)-2-((7-(perfluoroethyl)isoquinolin-1-yl)amino)acetamide], for which the IC50 stood at 72 nM.

Take `CC(O)[C@H]1CC[C@@H](N2CC(NC(=O)CNc3ncnc4ccc(C(F)(F)F)cc34)C2)CC1` (stereo partly drawn) [Example 97, N-(1-((1S,4s)-4-(1-hydroxyethyl)cyclohexyl)azetidin-3-yl)-2-((6-(trifluoromethyl)quinazolin-4-yl)amino)acetamide]: the IC50 was 89 nM.

As to `CCC(O)[C@H]1CC[C@@H](N2CC(NC(=O)CNc3ncnc4ccc(C(F)(F)F)cc34)C2)CC1` (stereo partly drawn) [Example 93, N-(1-((1S,4s)-4-(1-hydroxypropyl)cyclohexyl)azetidin-3-yl)-2-((6-(trifluoromethyl)quinazolin-4-yl)amino)acetamide], the IC50 stood at 21 nM.

Regarding `CCC(N)[C@H]1CC[C@@H](N2CC(NC(=O)CNc3ncnc4ccc(C(F)(F)F)cc34)C2)CC1` (stereo partly drawn) [Example 136, N-(1-((1R,4s)-4-((S)-1-aminopropyl)cyclohexyl)azetidin-3-yl)-2-((6-(trifluoromethyl)quinazolin-4-yl)amino)acetamide], the IC50 was determined as 40 nM.

As for `CC1CCC(N2CC(NC(=O)CNc3ncnc4ccc(C(F)(F)F)cc34)C2)CC1` (centres unmarked) [Example 119, N-(1-(4-methylcyclohexyl)azetidin-3-yl)-2-((6-(trifluoromethyl)quinazolin-4-yl)amino)acetamide], the IC50 came out at 82 nM.

`O=C(CNc1ncnc2ccc(C(F)(F)F)cc12)NC1CN([C@H]2CC[C@@H](C3COC(=O)N3)CC2)C1` (stereo partly drawn) [Example 16, N-(1-((1R,4s)-4-(2-oxooxazolidin-4-yl)cyclohexyl)azetidin-3-yl)-2-((6-(trifluoromethyl)quinazolin-4-yl)amino)acetamide]: the IC50 stood at 35 nM.

Turning to `O=C(CNc1ncnc2ccc(C(F)(F)F)cc12)NC1CN([C@H]2CC[C@@H](C3CCCO3)CC2)C1` (some centres unmarked) [Example 15], the IC50 came out at 49 nM.

Consider `[N-]=[N+]=NCC(O)[C@H]1CC[C@@H](N2CC(NC(=O)CNc3ncnc4ccc(C(F)(F)F)cc34)C2)CC1` (stereo partly drawn) [Example 19, N-(1-((1S,4s)-4-(2-azido-1-hydroxyethyl)cyclohexyl)azetidin-3-yl)-2-((6-(trifluoromethyl)quinazolin-4-yl)amino)acetamide], for which the IC50 was determined as 16 nM.

On to `[2H][C@]1(N2CC(NC(=O)CNc3ncnc4ccc(C(F)(F)F)cc34)C2)CC[C@@H](C(O)C2CC2)CC1` (stereo partly drawn) [Example 5, N-(1-((1S,4s)-4-(cyclopropyl(hydroxy)methyl)1-deuterocyclohexyl)azetidin-3-yl)-2-((6-(trifluoromethyl)quinazolin-4-yl)amino)acetamide], for which the half-maximal inhibitory concentration (IC50) is 14 nM.

Turning to `CSCC(O)[C@H]1CC[C@@H](N2CC(NC(=O)CNc3ncnc4ccc(C(F)(F)F)cc34)C2)CC1` (stereo partly drawn) [Example 18, N-(1-((1S,4s)-4-(1-hydroxy-2-(methylthio)ethyl)cyclohexyl)azetidin-3-yl)-2-((6-(trifluoromethyl)quinazolin-4-yl)amino)acetamide], the IC50 was determined as 10 nM.

As to `O=C(CNc1ncnc2ccc(C(F)(F)F)cc12)NC1CN(C2CCC(C(F)(F)F)CC2)C1` (centres unmarked) [Example 123, N-(1-(4-(trifluoromethyl)cyclohexyl)azetidin-3-yl)-2-((6-(trifluoromethyl)quinazolin-4-yl)amino)acetamide], the IC50 amounted to 130 nM.

Turning to `CC[C@@H](O)C1CCC(N2CC(NC(=O)CNc3nccc4ccc(C(F)(F)F)cc34)C2)CC1` (stereo partly drawn) [Example 167, N-(1-((1R,4s)-4-(1-hydroxypropyl)cyclohexyl)azetidin-3-yl)-2-((7-(trifluoromethyl)isoquinolin-1-yl)amino)acetamide], the IC50 is 44 nM.

As for `O=C(CNc1cnnc2ccc(C(F)(F)F)cc12)NC1CN([C@H]2CC[C@@](O)(c3cncs3)CC2)C1` [Example 147, N-(1-((1r,4r)-4-hydroxy-4-(thiazol-5-yl)cyclohexyl)azetidin-3-yl)-2-((6-(trifluoromethyl)cinnolin-4-yl)amino)acetamide], the IC50 worked out at 9.2 nM.

Take `CCC(NC(=O)OC)[C@H]1CC[C@@H](N2CC(NC(=O)CNc3ncnc4ccc(C(F)(F)F)cc34)C2)CC1` (stereo partly drawn) [Example 104, methyl (−1-((1s,4S)-4-(3-(2-((6-(trifluoromethyl)quinazolin-4-yl)amino)acetamido)azetidin-1-yl)cyclohexyl)propyl)carbamate]: the IC50 was 644 nM.

On to `CCN(C(=O)OCc1ccccc1)[C@H]1CC[C@@H](N2CC(NC(=O)CNc3ncnc4ccc(C(F)(F)F)cc34)C2)CC1` [Example 47, Benzyl ethyl((1s,4s)-4-(3-(2-((6-(trifluoromethyl)quinazolin-4-yl)amino)acetamido)azetidin-1-yl)cyclohexyl)carbamate], for which the IC50 turned out to be 160 nM.

As for `CC(C)[C@@H](O)[C@H]1CC[C@H](N2CC(NC(=O)CNc3cnnc4ccc(C(F)(F)F)cc34)C2)CC1` (racemic) [Example 158, N-(1-((1R,4r)-4-((R)-1-hydroxy-2-methylpropyl)cyclohexyl)azetidin-3-yl)-2-((6-(trifluoromethyl)cinnolin-4-yl)amino)acetamide], the IC50 was determined as 2560 nM.

Turning to `O=C(CNc1ncnc2ccc(C(F)(F)F)cc12)NC1CN([C@H]2CC[C@@H](C3CCCC(=O)N3)CC2)C1` (stereo partly drawn) [Example 13, N-(1-((1S,4s)-4-(6-oxopiperidin-2-yl)cyclohexyl)azetidin-3-yl)-2-((6-(trifluoromethyl)quinazolin-4-yl)amino)acetamide], the IC50 is 10 nM.

Regarding `CC(C)[C@@H](O)[C@H]1CC[C@@H](N2CC(NC(=O)CNc3nccc4ncc(C(F)(F)F)cc34)C2)CC1` (stereo in doubt) [Example 155, N-(1-((1R,4s)-4-((S)-1-hydroxy-2-methylpropyl)cyclohexyl)azetidin-3-yl)-2-((3-(trifluoromethyl)-1,6-naphthyridin-5-yl)amino)acetamide], the IC50 was over 25000 nM.
